Data published in paper PMC5504357, “Antifungal Potential of Copper(II), Manganese(II) and Silver(I) 1,10-Phenanthroline Chelates Against Multidrug-Resistant Fungal Species Forming the Candida haemulonii Complex: Impact on the Planktonic and Biofilm Lifestyles” (Frontiers in Microbiology, 2017).

Test: Solubility in solvents
Assay type: physicochemical
Conditions: solvents as named
Method: {[Cu(3,6,9-tdda)(phen)2].3H2O.EtOH}n (7). Step (i): Copper(II) acetate hydrate (1.50 g; 7.51 mmol) was dissolved in ethanol (50 mL) and the solution was added to an ethanolic solution (25 mL) of 3,6,9-trioxaundecanedioic acid (3,6,9-tddaH2) (2.84 g; […]). The light-green suspension was refluxed for 1 h, and after cooling to room temperature the light-green solid, [Cu(3,6,9-tdda)].H2O, was filtered off, washed with cold ethanol and air dried. Yield: 1.88 g (82.97%). % Calculated: C: 31.84, H: 4.68. % Found: C: 32.20, H: 4.60. […] Step (ii): [Cu(3,6,9-tdda)].H2O (1.00 g; 3.31 mmol) and phen (2.39 g; 13.26 mmol) were dissolved together in ethanol (50 mL) and the resulting dark-green mixture was refluxed for 2 h. The suspension was cooled and the green solid, {[Cu(3,6,9-tdda)(phen)2]3H2O.EtOH}n(7), was filtered off, washed with cold ethanol and air dried. Yield: 1.63 g (66.09%). % Calculated: C: 54.87, H: 5.42, N: 7.53. % Found: C: 54.65, H: 5.63, N: 7.39.
[Ag2(3,6,9-tdda)(phen)4].EtOH (16). Step (i): Silver(I) acetate (3.00 g; 17.97 mmol) was dissolved in ethanol (30 mL) and the solution was added to an ethanolic solution (25 mL) of 3,6,9-trioxaundecanedioic acid (3,6,9-tddaH2) (2.84 g; 8.95 mmol) and the orange-brown suspension refluxed for 3 h. […] Green [Ag2(3,6,9-tdda)(phen)4].EtOH (16) precipitated and was filtered off, washed with cold ethanol and air dried. Yield: 0.83 g (65.10%). % Calculated: C: 57.92, H: 4.19, N: 9.32. % Found: C: 57.75, H: […], N: 9.02. IR (KBr) νmax: 3380, 3046, 2905, 1978, 1804, 1618, 1585, 1509, 1421, 1322, 1263, 1215, 1121, 1077, 1018, 932, 890, 838, 726, 621, 465, 413 cm^−1. ^1H NMR (500 MHz, DMSO-d6, 313 K, TMS) δ = 9.12(8H, s), 8.63 (8H, d), 8.08 (8H, s), 7.91 (8H, dd), 3.74 (4H, s), 3.57 (8H, dd). ^13C NMR (125 MHz, DMSO-d6, 313 K, TMS) δ = 173.41, 151.28, 143.57, 138.03, 129.24, 127.37, 124.74, 71.44, 70.42, 69.74.

| Structure (SMILES) | Solubility |
| --- | --- |
| O.O.O=C([O-])COCCOCCOCC(=O)[O-].[Ag+].[Ag+] [[Ag2(3,6,9-tdda].2H2O] | soluble in hot H2O and hot DMSO |
| O.O=C([O-])COCCOCCOCC(=O)[O-].[Cu+2] [[Cu(3,6,9-tdda)].H2O] | soluble in H2O, MeOH, EtOH and insoluble in CHCl3, ethyl acetate and acetone |
